The target in assay [1] is Cell division cycle 7-related protein kinase (Homo sapiens, UniProt O00311). Nature of the assay: Inhibition of human Cdc7 using biotin-C6linker-TPSDSLIYDDGLS as substrate after 1 hr.
Assay [2] concerns the target Glycogen synthase kinase-3 beta (Homo sapiens, UniProt P49841). Put plainly: Inhibition of human recombinant GSK3beta.

Molecules are shown by their SMILES.

By Ki is commonly meant the dissociation constant of the complex between target and ligand, obtained from inhibition or displacement.

Chain of Cell division cycle 7-related protein kinase (O00311 whole entry): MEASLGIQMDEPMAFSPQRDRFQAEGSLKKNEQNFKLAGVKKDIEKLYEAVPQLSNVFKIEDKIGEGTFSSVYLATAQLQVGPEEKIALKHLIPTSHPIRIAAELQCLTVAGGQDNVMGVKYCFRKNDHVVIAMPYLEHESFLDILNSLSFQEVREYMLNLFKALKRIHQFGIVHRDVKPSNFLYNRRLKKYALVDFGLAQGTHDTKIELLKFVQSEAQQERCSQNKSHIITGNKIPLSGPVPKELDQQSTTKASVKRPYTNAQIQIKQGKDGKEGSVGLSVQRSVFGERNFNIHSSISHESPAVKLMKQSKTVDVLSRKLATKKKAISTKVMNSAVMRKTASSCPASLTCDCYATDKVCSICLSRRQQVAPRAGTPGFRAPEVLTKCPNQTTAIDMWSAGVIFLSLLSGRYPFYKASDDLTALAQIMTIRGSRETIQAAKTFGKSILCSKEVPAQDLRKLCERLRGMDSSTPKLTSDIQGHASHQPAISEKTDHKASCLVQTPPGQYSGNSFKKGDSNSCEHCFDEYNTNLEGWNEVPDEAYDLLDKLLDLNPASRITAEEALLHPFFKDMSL
Chain of Glycogen synthase kinase-3 beta (P49841 whole entry): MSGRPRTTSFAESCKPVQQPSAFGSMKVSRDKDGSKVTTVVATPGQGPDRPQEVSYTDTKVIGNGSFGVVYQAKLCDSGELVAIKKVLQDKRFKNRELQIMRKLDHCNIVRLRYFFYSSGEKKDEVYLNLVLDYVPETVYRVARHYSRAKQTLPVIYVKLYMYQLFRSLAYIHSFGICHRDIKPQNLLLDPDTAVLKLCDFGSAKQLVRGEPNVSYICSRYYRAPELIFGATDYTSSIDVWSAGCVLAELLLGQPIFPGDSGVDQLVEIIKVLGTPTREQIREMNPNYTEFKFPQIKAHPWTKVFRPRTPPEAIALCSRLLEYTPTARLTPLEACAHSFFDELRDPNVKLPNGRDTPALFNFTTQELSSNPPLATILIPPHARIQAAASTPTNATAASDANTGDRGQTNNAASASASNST

Compound `O=c1cc(-c2c[nH]c3ncccc23)cc(NC2CCCCC2)[nH]1` displayed a Ki in assay [1] of 0.28 nM.
In assay [1], `N#Cc1cc(-c2c[nH]c3ncccc23)cc(NC2CCCCC2)n1` registered an inhibition constant Ki of 7.7 nM.
Take `N#Cc1cc(-c2c[nH]c3ncccc23)cc(NCc2ccccc2)n1`: in assay [1], the affinity corresponds to a Ki of 1.4 nM.
For the compound `N#Cc1cc(-c2c[nH]c3ncccc23)cc(N[C@H]2CC[C@H](O)CC2)n1`, in assay [1], affinity was put at a Ki of 5.5 nM.
Still for that read-out and setting: to `NC(=O)c1cc(-c2c[nH]c3ncccc23)cc(N[C@H]2CC[C@H](O)CC2)n1` belongs 67 nM.
Turning to `Clc1cc(-c2c[nH]c3ncccc23)cc(NC2CCCCC2)n1`, the Ki stood at 0.9 nM in assay [1] and 58 nM in assay [2].
For the compound `c1cnc2[nH]cc(-c3ccnc(NC4CCCCC4)c3)c2c1`, the Ki in assay [1] came out at 8.7 nM.
Still for that read-out and setting: the figure for `Cc1cc(-c2c[nH]c3ncccc23)cc(NC2CCCCC2)n1` is 13 nM; for `Cc1cc(-c2c[nH]c3ncccc23)cc(NCc2ccccc2)n1` it is 15 nM.
As for `Cc1cc(-c2c[nH]c3ncccc23)cc(N[C@H]2CC[C@H](O)CC2)n1`, the Ki in assay [1] came out at 27 nM.
On the same count and under the same terms, to `Fc1cc(-c2c[nH]c3ncccc23)cc(NC2CCCCC2)n1` belongs 3.2 nM; to `O[C@H]1CC[C@H](Nc2cc(-c3c[nH]c4ncccc34)cc(F)n2)CC1`, 1.7 nM.
In turn, `N[C@H]1CC[C@H](Nc2cc(-c3c[nH]c4ncccc34)cc(F)n2)CC1` returned a Ki in assay [1] of 3.4 nM.

These data come from ChEMBL document CHEMBL2321696, “Azaindole-Based Inhibitors of Cdc7 Kinase: Impact of the Pre-DFG Residue, Val 195” (ACS Med Chem Lett, 2013).
